Test results published in patent US20250163009A1, “BENZOTHIA(DIA)ZEPINE COMPOUNDS FOR TREATMENT OF HBV AND HDV” (Assembly Biosciences, Inc., priority 2022, published 2025).

Test system: HBV
Test: HepG2-NTCP infection protocol, HBeAg quantification by ECL-ELISA
Type: cell-based
Settings: Hepatitis B virus, HepG2-NTCP cells infected with HBV at MOI 50; compound 24 hours, then 72 hours; HBeAg in supernatant
Procedure: HepG2 cells expressing the sodium taurocholate cotransporting polypeptide (HepG2-NTCP) were maintained in culture using HepG2-NTCP growth medium (DMEM (HyClone, Cat #SH30243.02) supplemented with 10% FBS, 150 μg/mL G418 (Alfa Aesar, Cat #J62671), 50 U/mL penicillin-streptomycin (Invitrogen, Cat #15140-122), and 0.5 μg/mL blasticidin (Sigma, Cat #15205)). Prior to infection, the cells were washed twice with 1×DPBS (Invitrogen, Cat #14190-136) and treated with 3 mL of 0.05% trypsin (Invitrogen, Cat #25200-056) to dissociate the cells. Following dissociation, 10 mL of HepG2-NTCP growth medium was added to the cells to neutralize the trypsin and the cells were then centrifuged at 1,300 rpm for 5 minutes. Following centrifugation, the cells were resuspended in 10 mL of HepG2-NTCP growth medium, counted, and then centrifuged at 1,300 rpm for 5 minutes. The cell pellet was resuspended in DMEM supplemented with 5% FBS, 50 U/mL penicillin-streptomycin, 4% PEG-8000 (Hamilton Research, Cat #HR2-515), and 1% DMSO (Sigma, Cat #D4540) to a density of 5.6×10^5 cells/mL and infected with HBV at an MOI of 50. Immediately after infection, 90 μL of the cell/HBV mixture was added to a 96-well plate containing 10 μL of compound and incubated at 37° C. for 24 hours (2% final DMSO concentration). After the incubation, the infection media was removed and replaced with DMEM supplemented with 5% FBS, 50 U/mL penicillin-streptomycin, and 1% DMSO and incubated for an additional 72 hours. At the end of the incubation, the plates were spun at 1,800 rpm for 8 minutes and the supernatant was removed for HBeAg quantification using electrochemiluminescence enzyme-linked immunosorbent assays (ECL-ELISA).
To conduct the HBeAg ECL-ELISA, Lumitrack high-binding 96-well plates (Greiner, Cat #655074) were treated with 625 ng/mL HBeAg mAb (Biocheck, Cat #70426) in 1×DPBS for 2 hours at 25° C. with shaking. The HBeAg mAb solution was then removed and the plates treated with 1×DPBS containing 0.5% bovine serum albumin (BSA) (Sigma, Cat #A7030-100 g) for 2 hours at 25° C. with shaking. The HBeAg-coated plates were then washed 4 times with 1×DPBS containing 0.05% Tween 20 (DPBS-T) (Thermo Fisher Scientific, Cat #J61544-K2). Following the wash, 90 μL of HRP-conjugated antibody (Fitzgerald, Cat #61-H10K), diluted 1:8,000 in 1×DPBS-T containing 0.5% BSA, was added to the HBeAg-coated plates along with 10 μL of sample. The plates were then incubated for 2 hours at 25° C. with shaking. Following the incubation, the sample was then removed and 200 μL of 1×PBS-T was added and the plates were incubated for 10 minutes at 25° C. with shaking. The plates were then washed 6 times with 1×PBS-T and blotted dry. 80 μL of ECL substrate (Millipore, Cat #WBKLS0500) was then added to the plate and the luminescence was measured using a Tecan M1000 Pro plate reader.

EC50: < 100 nM
Structure (SMILES): CCCCC1CN([C@H]2CC[C@H](OC)CC2)c2cc(SC)c(O/C=C(\F)C(=O)O)cc2S(=O)(=O)N1C (stereo partly shown) [Example 56]
